Assay results taken from patent US20260327263A1, “Anti-Bacterial Peptides” (priority 2023, published 2026).
Where “and” joins values, the source holds several entries; their conditions need not be identical. Equal entries are not always repeated. Entries after “also recorded” stand apart in the source; their conditions may differ. Where no end group is shown, it is not given here.

Legend:
[1] = test system: Staphylococcus aureus (SA); assay: Broth microdilution anti-bacterial assay (CLSI), Staphylococcus aureus; assay type: cell-based; settings: SA; for MIC: overnight, 37° C., ≥99% inhibition; for MBC: ≥99% killing
Description: (§1) To evaluate their anti-bacterial potency, broth microdilution method as per the CLSI guidelines 1 was used. […] The anti-bacterial potency of the tested agents is quantified using minimum inhibitory concentration (MIC) and minimum bactericidal concentration (MBC). […] To obtain the MBC data, 1X, 2X and 4× MIC of the peptide variants were plated to obtain the number of viable colonies compared to the original inoculum.
(§2) Pseudomonas aeruginosa (ATCC 14213, PA), and methicillin resistant Staphylococcus aureus (BAA1717-USA 300, SA) were obtained from The American Type Culture Collection (ATCC).
(§3) Examination of the potency of modified short peptides against PA and SA strains was performed by using the broth microdilution protocol from the Clinical and Laboratory Standards Institute (CLSI) guidelines (CLSI 2012) as described. Briefly, five freshly plated bacteria colonies were grown in cation adjusted MH2 broth (BD Biosciences) in a shaker incubator at 37° C., 220 RPM. Cells were grown to an optical density (OD600) of ~0.2 measured using a Microplate Spectrophotometer (Molecular Devices Spectra Max Plus). 100 μL of microbial culture containing ~5×10^5 CFU/mL of bacteria in the respective broths were introduced into each well containing 100 μL of peptides and incubated overnight at 37° C. Next, to check the bactericidal effects, 100 μL from each well was transferred and spread on sterile MH2 agar plates. The plates were incubated overnight at 37° C. and the number of colonies forming units (CFU) were calculated the following day. Readings of bacteria grown in media without any treatments were normalized to 100% as media control. For the mixed infection study, three freshly plated bacteria colonies each from PA, SA and ST plates were grown together in cation adjusted MH2 broth and proceeded as described above.

[2] = test system: Pseudomonas aeruginosa (PA); assay: Time-kill assay, Pseudomonas aeruginosa; assay type: cell-based; settings: for time to kill PA (in words): 1X MBC; for Time kill PA, >99% killing: at 1X MBC, * indicates killing within seconds
Description: (§4) The bactericidal abilities of the variant peptides are not only effective, but also fast-acting. […] The killing kinetics are detailed in Table 11 below.
(§5) Pseudomonas aeruginosa (PA) and Staphylococcus aureus (SA) strains were grown as per CLSI guidelines. AMPs were added to the bacterial cultures at their 1X MBC concentrations. Upon treatment, the bacterial cultures were enumerated for viable counts immediately within 1 min, 5 min, 15 min, 30 min and 60 min post-treatments.

[3] = test system: Pseudomonas aeruginosa (PA); assay: Broth microdilution anti-bacterial assay (CLSI), Pseudomonas aeruginosa; assay type: cell-based, Pseudomonas aeruginosa (ATCC 14213); settings: for anti-bacterial activity (in words): PA and SA; for MIC / MBC: PA; for MIC: overnight, 37° C., ≥99% inhibition; for MBC: ≥99% killing
Description: as §1, §2, §3

[4] = test system: Staphylococcus aureus (SA); assay: Time-kill assay, Staphylococcus aureus; assay type: cell-based; settings: for time to kill SA (in words): 1X MBC; for Time kill SA, >99% killing: at 1X MBC, * indicates killing within seconds
Description: as §4, §5

human keratinocytes = assay: 2D scratch assay, keratinocyte migration; assay type: cell-based; settings: for migration speed of keratinocytes: 48 h, E1AM2 3.125-12.5 μM, Q19L 3.125-6.25 μM
Description: Wound healing is directly associated with the migration speed of keratinocytes. The migration speed of human keratinocytes in presence of E1AM2, V8L (SEQ ID NO: 19), and Q19L variants is tested in comparison with pexiganan (SEQ ID NO: 54). Migration speed of human keratinocytes assessed in a 2D scratch assay at D 0 and D 2 timepoints. Decrease in wound area over time was measured by applying an ImageJ plugin ‘Wound Healing Size Tool’ on bright-field images. The change in wound area over the course of 48 hours was used as a measure of the migration speed of keratinocytes. Each value is the mean±SD (n=3). The p-value was calculated using ANOVA for multiple comparisons (Dunnett's multiple comparisons test). **** p<0.0001. *** p<0.001. ** p <0.01. * p<0.05. […] Both peptides healed wound faster within their respective MIC and MBC concentrations. […] SEQ ID NO: 27=Q19L; SEQ ID NO: 2=E1AM2; SEQ ID NO: 19=V8L.
(§6) Wound closure was compared with the untreated samples (circle, red highlight). For improved clarity, error bars have been omitted from this representation. […] Each value is the mean±SD (n=3). Statistical significance was assessed using ANOVA for multiple comparisons (Dunnett's multiple comparisons test). **** p<0.0001, *** p<0.001, ** p<0.01, *p<0.05, ns denotes nonsignificance, p >0.05.
Wound areas of the human keratinocyte culture were assessed in presence of peptides in a 2D scratch assay at the 0 hour, and 48-hour time points by applying an ImageJ plugin, ‘Wound Healing Size Tool’ on brightfield images. Quantification of wound width was calculated by obtaining the averaged Euclidean distance between each paired pixel at the lateral wound edges. The change in wound area over the course of 48 hours was used as a measure of the migration speed of keratinocytes.
Using the inverted BioTek Lionheart LX Automated Microscope, brightfield images were obtained at 4× magnification to observe the wound area at timepoints 0 (before treatment) and 48 hours-post treatment. Microscopy settings were maintained as focus offset (781.3 μm), illumination (2), integration Time (21) with no gain. To cover the entire well, montage images of four rows by three columns were stitched together by enabling the “image stitching” function and images were saved in tiff-format.

[5] = Comparison of AMPs in clinical trial with V8LQ19L (Table 13); settings: ✓ / X
[6] = test system: Pseudomonas aeruginosa PA BAA-2110; assay: Broth microdilution, PA BAA-2110 (lung infection in cystic fibrosis); assay type: cell-based, Pseudomonas aeruginosa (BAA-2110); settings: PA BAA-2110
Description: (§7) Bacteria strains involved in lung infection in cystic fibrosis patients (PA-BAA 2110) and ear-eye infections (PA-CRM 9027) are treated with exemplary variant peptides, such as E1AM2 and Q19L.
as §3

[7] = test system: Pseudomonas aeruginosa PA CRM-9027; assay: Broth microdilution, PA CRM-9027 (ear-eye infections); assay type: cell-based, Pseudomonas aeruginosa (CRM-9027); settings: PA CRM-9027
Description: as §7, §3

[8] = test system: Pseudomonas aeruginosa (PA); assay: Antimicrobial resistance evolution assay, PA; assay type: cell-based; settings: for development of antimicrobial resistance, PA: serial passaging, 28 days, resistance = >4-fold MIC change
Excerpt: (§8) The development of antimicrobial resistance is defined by greater than a 4-fold change to their initial minimum inhibitory concentration (MIC) at day 1. Exemplary bacteria strains Pseudomonas aeruginosa (PA) and Staphylococcus aureus (SA) are subjected to continuous daily serial passaging over several days, with treatment of exemplary variant peptides E1AM2 (SEQ ID NO: 2) and Q19L (SEQ ID NO: […]) at subinhibitory concentrations. […] The treatments were discontinued when the MIC increased by more than four-fold from the initial MIC or when MIC reached >100 μM.
(§9) Briefly, sequential passaging of PA, and SA cells was done with sub-inhibitory concentrations of antibiotics or E1AM2 up to 4 weeks. The cells grown in those concentrations of antibiotics or peptides were diluted to A600 nm (OD600) of ~0.2 and serially passaged daily with the same concentrations at 37° C. with agitation at 24 h intervals.

[9] = test system: mixed bacterial infection (PA, SA and ST); assay: Broth microdilution, mixed bacterial infection; assay type: cell-based; settings: mixed infection
Description: Chronic wounds mostly present mixed infections where numerous pathogens colonize together.
as §3

fibroblasts (HFF-1) = assay: Cell proliferation assay, HFF-1 fibroblasts; assay type: cell-based; settings: 24 h
[10] = test system: human keratinocytes (HaCaT); assay: Cell proliferation assay, HaCaT keratinocytes; assay type: cell-based
Description: as §6
CyQUANT™ Direct Cell Proliferation Assay (ThermoFisher Scientific, Catalogue) was performed as per manufacturer's instructions to determine the safety of the peptides to human keratinocytes. […] The fluorescence intensity and number of stained cells were determined using the LionHeart FX Automated Microscope (BioTek, VT, USA).

[11] = test system: human red blood cells (hRBCs); assay: Hemolysis assay; assay type: cell-based; settings: hRBCs; for minimum concentration corresponding to 10% hemolysis (HC): 37° C., 30 min; for hemolysis (in words): FIG. 8 up to 100 μM
Description: (§10) The hemolytic score of the peptide variants and pexiganan (SEQ ID NO: 54) are compared to a strong hemolytic peptide, melittin 12 as a control. […] The minimum peptide concentration corresponding to 10% hemolysis (minimal hemolysis concentration, HC) of E1AM2=50 μM, V8LQ19L=12.5 μM, V8LQ19L C-2=3.125 μM, and pexiganan=12.5 μM respectively. Readings of the melittin at 3.125 μM were normalised to 100%.
(§11) Examination of hemolytic activity of ultra-short peptides was performed by isolating the red blood cells (RBCs) from human blood samples by centrifugation (1000 g, 4° C., 10 min) and resuspension in 27 mL PBS. This washing step was repeated four times before the RBCs were diluted to a 10% (v/v) suspension. […] Hemolytic properties of E1AM2 and pexiganan were evaluated with melittin used as a positive control, and PBS as a negative control. The plates were incubated at 37° C., for 30 min and then centrifuged (1258 g, 4° C., 6 min). 75 μL of supernatant were transferred into a flat-bottom clear 96-well plate and the OD576 nm was read. Readings of the melittin sample at 3.125 μM were normalized to 100%.

Hemolysis assay = assay type: cell-based, human; settings: human, red blood cells; at respective MIC/MBC concentrations; melittin 3.125 μM = 100%
Description: as §10, §11

[12] = test system: Staphylococcus aureus (SA); assay: Antimicrobial resistance evolution assay, SA; assay type: cell-based; settings: serial passaging; resistance = >4-fold MIC change
Excerpt: as §8, §9

Row | Compound | MIC [1] | MBC [1] [µM] | time to kill PA (in words) [2] | Time kill PA, >99% killing [2] | anti-bacterial activity (in words) [3] | MIC [3] [µM] | MBC [3] | time to kill SA (in words) [4] | Time kill SA, >99% killing [4] [min] | migration speed of keratinocytes (human keratinocytes) | MBC [6] [µM] | MIC [6] [µM] | MBC [7] [µM] | MIC [7] [µM] | development of antimicrobial resistance, PA [8] | minimum concentration corresponding to 10% hemolysis (HC) [11] [µM] | hemolysis (in words) [11] | other results
1 | KKLLKKWLKLSKKALKLAQSL-NH2 [V8L] | 3.125 µM | 3.125 | within minutes | 1* min | reduction in the minimum inhibitory concentration (MIC) and minimum bactericidal concentration (MBC) values | 3.125 | 3.125 µM | within minutes | >30 to 60 | maintained keratinocyte migration speed |  |  |  |  |  |  |  | 
2 | GIGKFLKKAKKFGKAFVKILKK-NH2 [Pexiganan, reference compound] | 6.25 µM and 6.12 µM | 12.5 | took the longest time to kill >99% PA | >5 to 15 min |  | 3.125 | 6.25 µM |  | 1 |  | 6.25 | 3.125 | 3.125 | 3.125 | developed resistance | 12.5 | none of the peptide variants or pexiganan caused significant hemolysis | Broad spectrum activity [5]: ✓; Healing support [5]: ✓; MIC/MBC relative to E1AM2, SA [1]: two-higher value; MIC ([1]; listed as PEX): 6.25 µM and 6.26 µM; MBC ([1]; listed as PEX): 12.8 µM and 12.5 µM and 12.6 µM; AMR prevention / resistance induction ([8]; Table 15: in PA and SA, bacteria not named): Gives rise to AMR; MBC [9]: 12.5 µM; MIC [9]: 6.25 µM; HFF-1 proliferation (fibroblasts (HFF-1); certain concentrations): enhanced proliferation; Cytotoxicity at high concentration (100 μM) ([10]; 100 μM, cell line not named in Table 15): Cytotoxic; MIC ([3]; listed as PEX): 3.128 µM and 3.125 µM; MBC ([3]; listed as PEX): 6.25 µM and 8.25 µM
3 | KKLLKKWLKLSKKALKLAL-NH2 [V8LQ19L C-2] | 1.56 µM | 1.56 |  |  | strong potency | 1.56 | 1.56 µM |  |  |  |  |  |  |  |  | 3.125 | do not cause hemolysis | hemolysis at 0.5 h (Hemolysis assay): ~0%
4 | KKLLKKWVKLSKKALKLALSL-NH2 [Q19L] | 3.125 µM | 3.125 | within minutes | >1.5 min | reduction in the minimum inhibitory concentration (MIC) and minimum bactericidal concentration (MBC) values | 3.125 | 3.125 µM and 6.25 µM | within minutes | 1 | increase keratinocyte migration; also recorded: increased the migration speed of keratinocytes significantly | 6.25 | 6.25 | 6.25 | 6.25 | prevented resistance acquisition |  |  | development of antimicrobial resistance, SA [12]: prevented resistance development; migration delay of keratinocytes (human keratinocytes; only at highest concentrations (100 μM)): significant migration delay
5 | OO [H2O2, hydrogen peroxide, reference compound] |  |  |  |  |  |  |  |  |  |  |  |  |  |  |  |  |  | cytotoxicity to HFF-1 (fibroblasts (HFF-1); up to highest tested concentrations (peptide), 3% (H2O2)): significant cytotoxicity; cytotoxicity to HaCaT ([10]; 24 h, up to highest tested concentrations (peptide), 3% (H2O2)): significant cytotoxicity
